According to patent publication US9750724B2, “Use of an aromatase inhibitor for the treatment of hypogonadism and related diseases” (Mereo BioPharma 2 Limited, priority 2011, dated 2017):

How the values were obtained:
aromatase = biological target: T1, aromatase (Rattus norvegicus, UniProt P22443); settings: once weekly administration, adult female rats; Batzl-Hartmann et al, 1994; cited from earlier work
T1 construct: host or cells: adult female rats (whole animal, endogenous enzyme)
T1 sequence (P22443 1-508): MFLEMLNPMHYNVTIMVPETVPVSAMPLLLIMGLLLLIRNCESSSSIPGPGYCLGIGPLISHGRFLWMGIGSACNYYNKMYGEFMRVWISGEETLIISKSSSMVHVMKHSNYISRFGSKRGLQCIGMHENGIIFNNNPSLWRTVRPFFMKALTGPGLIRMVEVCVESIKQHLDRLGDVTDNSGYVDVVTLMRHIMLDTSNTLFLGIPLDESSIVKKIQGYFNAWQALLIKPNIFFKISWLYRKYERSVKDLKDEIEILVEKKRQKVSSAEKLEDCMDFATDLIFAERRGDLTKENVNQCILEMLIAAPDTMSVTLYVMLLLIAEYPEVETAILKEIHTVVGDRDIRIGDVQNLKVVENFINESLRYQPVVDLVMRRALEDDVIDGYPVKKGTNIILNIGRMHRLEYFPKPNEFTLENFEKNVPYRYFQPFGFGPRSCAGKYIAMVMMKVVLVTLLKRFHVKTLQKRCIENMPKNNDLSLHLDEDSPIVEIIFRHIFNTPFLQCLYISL

[1] = Single ascending dose study in pre- and post-menopausal women, pharmacokinetics; assay type: in vivo, human; settings: for AUC(0-t): AUC (0-tlast) Mean; for Cmax: Cmax Mean
Text: The drug concentration in plasma and/or serum samples can be determined by a number of different ways, e.g. HPLC or LC-MS/MS analyses. […]
(§1) A minimal toxic dose (MTD) was not reached. […] Table 3 presents the PK parameters based on preliminary analysis of the concentration-time profile obtained from this study.

[2] = system: estrone, estrone sulfate and estradiol; test: Single ascending dose study in women, pharmacodynamics (estrogen suppression); assay type: in vivo, human
Description: Patients received either 0.1 mg, 1 mg, and 10 mg drug substance containing hard gelatin capsules or appropriate matching placebo capsules.
as §1

[3] = Toxicologic studies in female and male dogs, weekly oral dosing; assay type: in vivo, dog
Text: Generally, the inter-animal variability in Cmax levels was small.

[4] = female, human, in vivo, 0.01 mg
[5] = female, human, in vivo, 0.03 mg

N#Cc1ccc(C(F)(c2ccc(C#N)cc2)n2cncn2)cc1 [CGP47645, 4,4′-[fluoro-(1-H-1,2,4-triazol-1-yl)methylene]bisbenzonitrile]
effective dose achieving medical castration (aromatase): 3 mg/kg
Tmax [1, 4]: 1 h
AUC(0-t) [1, 4]: 1.4 ng·h/mL
Cmax [1, 4]: 0.2 ng/mL
half-life ([1]; female, human, in vivo, 0.01 mg, T1/2 Mean): 55.2 h
AUC(0-t) [1, 5]: 24.1 ng·h/mL
Cmax [1, 5]: 0.4 ng/mL
half-life ([1]; female, human, in vivo, 0.03 mg, T1/2 Mean): 396 h
T1/2 Mean ([1]; female, human, in vivo, 0.1 mg): 564 h
Tmax ([1]; female, human, in vivo, 0.1 mg): 1 h
Tmax Median ([1]; female, human, in vivo, 0.1 mg): 1 h
AUC(0-t) ([1]; female, human, in vivo, 0.1 mg): 123 ng·h/mL
Cmax ([1]; female, human, in vivo, 0.1 mg): 1.8 ng/mL
half-life ([1]; female, human, in vivo, 0.1 mg, T1/2 Mean): 437 h
Tmax ([1]; female, human, in vivo, 0.3 mg): 1 h
AUC(0-t) ([1]; female, human, in vivo, 0.3 mg): 605 ng·h/mL
Cmax ([1]; female, human, in vivo, 0.3 mg): 5.1 ng/mL
half-life ([1]; female, human, in vivo, 0.3 mg, T1/2 Mean): 564 h
Tmax ([1]; female, human, in vivo, 1 mg): 1 h
AUC(0-t) ([1]; female, human, in vivo, 1 mg): 3200 ng·h/mL
Cmax ([1]; female, human, in vivo, 1 mg): 12.8 ng/mL
half-life ([1]; female, human, in vivo, 1 mg, T1/2 Mean): 538 h
Tmax ([1]; female, human, in vivo, 3 mg): 1 h
AUC(0-t) ([1]; female, human, in vivo, 3 mg): 10100 ng·h/mL
Cmax ([1]; female, human, in vivo, 3 mg): 38.4 ng/mL
half-life ([1]; female, human, in vivo, 3 mg, T1/2 Mean): 600 h
Tmax ([1]; female, human, in vivo, 10 mg): 2 h
AUC(0-t) ([1]; female, human, in vivo, 10 mg): 41700 ng·h/mL
Cmax ([1]; female, human, in vivo, 10 mg): 124 ng/mL
half-life ([1]; female, human, in vivo, 10 mg, T1/2 Mean): 655 h
Tmax ([1]; female, human, in vivo, 20 mg): 2 h
AUC(0-t) ([1]; female, human, in vivo, 20 mg): 76700 ng·h/mL
Cmax ([1]; female, human, in vivo, 20 mg): 270 ng/mL
half-life ([1]; female, human, in vivo, 20 mg, T1/2 Mean): 646 h
half-life ([1]; female, human, in vivo, half life): ~600 h
half-life ([1]; female, human, in vivo, half-life in serum): 528 to 696 h
Tmax ([1]; female, human, in vivo, po): 0.5 to 2 h
median Tmax ([1]; female, human, in vivo, po): ≤ 1 h
half-life ([1]; female, human, in vivo, po, half-life): 552 to 648 h
differences in pharmacokinetics between post- and pre-menopausal women ([1]; in vivo): No differences
dose proportionality of pharmacokinetics ([1]; single doses 0.01 to 20 mg, women): dose proportional pharmacokinetics
estrone suppression compared with letrozole ([2]; postmenopausal women, doses of 0.1 mg and 0.3 mg, letrozole 2.5 mg): at least equal to letrozole
inhibition of estrone, estrone sulfate and estradiol ([2]; single doses, women): dose-dependent inhibition
Tmax ([3]; both sexes, dog, plasma, oral, dogs, post dose): 1 to 24 h
difference in exposure (AUC and Cmax) between male and female dogs ([3]; dogs): no consistent difference
drug accumulation ([3]; dogs, weekly oral dosing for 4 or 22 weeks versus single dose): no drug accumulation
increase in exposure (AUC and Cmax) versus dose ([3]; male and female dogs, single and multiple doses): generally proportional to the dose increase
serum testosterone levels ([3]; male dogs after 1, 4 and 12 weeks of dosing): dramatically elevated testosterone levels at all dose levels
